Patent publication US7722858B2, “Prevention and treatment of atherosclerosis by reducing carbamylation of LDL or the effects of carbamylated LDL” (Board of Trustees of the University of Arkansas, priority 2001, dated 2010)
“Also recorded” adds a separate entry of the source.

Key:
[1] = test system: lens protein; conditions: cited from earlier work
[2] = test system: carbamylation of LDL; test: In vitro inhibition of LDL carbamylation by potassium cyanate; type: biochemical, human; conditions: molar ratios of 1:1 to 16:1 (L-lysine:KOCN)
Procedure: CLDL (cLDL) was produced by chemical modification of nLDL. Native LDL was incubated under sterile conditions with potassium cyanate (Aldrich; Milwaukee, Wis.) (20 mg KOCN/mg nLDL) at 35° C. for 4 hours. Salt was removed by excessive dialysis against 0.15 M NaCl, 0.01% EDTA, pH 7.0 at 4° C. for 48 hours under sterile conditions. To obtain cLDL carbamylated to different degrees, various incubation periods, from 5 to 300 min, were used.
Assessment of carbamylation was made (a) on the basis of relative electrophoretic mobility in agarose gel, and (b) by the homocitrulline assay as described by Trepanier et al.. Briefly, 25 μg of LDL protein in PBS, pH 7.4 (50 μl volume) was incubated with 2 μg proteinase K and 1% SDS (v:v) at 37° C. for 2 hours. Then 250 μl of urea-nitrogen reagent (0.83 M sulfuric acid, 1.13 M orthophosphoric acid, 0.55 mM thiosemicarbazide, 2.6 mM cadmium sulfate), 50 μl 3% diacetyl monoxime in water was added and the mixture was incubated at 97° C. for 30 min. Samples were transferred into a 96-well plate and absorption of chromogen(s) was recorded at 530 nm. Homocitrulline (carbamyl lysine) standard curves (0-30 nmol) were generated using serial dilutions of a stock solution (200 μM) in PBS, pH 7.4. Results are expressed as nmol homocitrulline/mg LDL protein).

[3] = test system: HCAECs; test: Flow cytometry of LDL-treated cells double-labeled with BrdU and 7-AAD; type: cell-based, human
Procedure: Flow cytometry of LDL-treated cells double-labeled with BrdU and 7-AAD (marker of total DNA) was performed to detect whether BrdU incorporation is linked to DNA synthesis or DNA repair, and whether mitosis is suppressed, and thus accumulation of polyploid cells is associated with the increase of BrdU incorporation.

[4] = test system: rat lens; conditions: rat lens incubated in cyanate; cited from earlier work

Q: Which “carbamylation of lens protein” value ([1]; present with cyanate) does the source give for `O=C(O)COc1nn(Cc2ccccc2)c2ccccc12` [Bendazac] here?
A: Its value is “inhibits the carbamylation of lens protein”.

Q: Which “inhibition of carbamylation of LDL in vitro” value (“inhibition” below) [2] does the source give for `N=C(N)NCCC[C@H](N)C(=O)O` [L-arginine] here?
A: Its value is “can inhibit carbamylation of LDL in vitro”.

Q: With `NCC(=O)O` [L-glycine] as the compound, how does the “inhibition” value [2] read?
A: Its value is “can inhibit carbamylation of LDL in vitro”.

Q: For `NCCCC[C@H](N)C(=O)O` [L-lysine], which “inhibition” value [2] is on record?
A: The value was “can inhibit carbamylation of LDL in vitro; also recorded: inhibition of LDL carbamylation”.

Q: With `N#C[O-].[K+]` [Potassium cyanate, potassium cyanate] as the compound, how does the “induction of proliferation or DNA synthesis” value [3] read?
A: The value was “did not induce proliferation or DNA synthesis”.

Q: Which “cyanate-induced increase in phase separation temperature” value [4] does the source give for `CC(=O)Oc1ccccc1C(=O)O` [aspirin] here?
A: The value was “aspirin-preventable increase in phase separation temperature”.

Q: Which “binding of cyanate to lens protein” value [1] does the source give for `CC(C)Cc1ccc(C(C)C(=O)O)cc1` (stereo not shown) [ibuprofen] here?
A: Its value is “dose-dependent decrease”.
